Structures are written as SMILES.

The record followed here is ChEMBL document CHEMBL4184295, “7α,15-Dihydroxydehydroabietic acid from Pinus koraiensis inhibits the promotion of angiogenesis through downregulation of VEGF, p-Akt and p-ERK in HUVECs” (Bioorg Med Chem Lett, 2018).

The test system of data set [1] is HUVEC. The data set is described as follows: Cytotoxicity against HUVEC assessed as reduction in cell viability up to 100 uM after 24 hrs by MTT assay. The class given is cell-based. Conditions: human.
Data set [2] deals with HUVEC. Kind of data set: Antiangiogenic activity against HUVEC assessed as reduction in tube formation at 6.25 uM after 24 hrs by matrigel-based light microscopic analysis relative to control. It is filed as functional, Homo sapiens. Details: scale not given: the % may be the effect or the level left.
Data set [3] relates to HUVEC. The data set is described as follows: Down regulation of VEGF expression in HUVEC at 3.125 uM after 24 hrs by Western blot analysis relative to control. The class given is functional, Homo sapiens. On the technique in general: A western blot detects proteins with antibodies after separation by electrophoresis.
Data set [4] relates to HUVEC. The data set is described as follows: Down regulation of VEGF expression in HUVEC at 6.25 uM after 24 hrs by Western blot analysis relative to control. It is filed as functional, Homo sapiens.
The target of data set [5] is RAC-alpha serine/threonine-protein kinase (Homo sapiens) (UniProt P31749). Kind of data set: Inhibition of AKT phosphorylation in HUVEC at 3.125 uM after 24 hrs by Western blot analysis relative to control. It is filed as cell-based.
Data set [6] has the same target. The data set is described as follows: Inhibition of AKT phosphorylation in HUVEC at 6.25 uM after 24 hrs by Western blot analysis relative to control. The class given is cell-based.
The subject of data set [7] is HUVEC. Kind of data set: Inhibition of ERK phosphorylation in HUVEC at 3.125 uM after 24 hrs by Western blot analysis relative to control. The class given is cell-based. The note with it: Homo sapiens.
The subject of data set [8] is HUVEC. Kind of data set: Inhibition of ERK phosphorylation in HUVEC at 6.25 uM after 24 hrs by Western blot analysis relative to control. The class given is cell-based. Conditions: Homo sapiens.
In data set [9] the test system is HUVEC. Kind of data set: Antiangiogenic activity against HUVEC assessed as reduction in tube formation at 12.5 uM after 24 hrs by matrigel-based light microscopic analysis relative to control. The class given is functional, Homo sapiens. Details: scale not given: the % may be the effect or the level left.
The subject of data set [10] is HUVEC. Kind of data set: Antiangiogenic activity against HUVEC assessed as reduction in tube formation at 100 uM after 24 hrs by matrigel-based light microscopic analysis relative to control. Details: scale not given: the % may be the effect or the level left. The class given is functional, Homo sapiens.

RAC-alpha serine/threonine-protein kinase (Homo sapiens), sequence (P31749 whole entry): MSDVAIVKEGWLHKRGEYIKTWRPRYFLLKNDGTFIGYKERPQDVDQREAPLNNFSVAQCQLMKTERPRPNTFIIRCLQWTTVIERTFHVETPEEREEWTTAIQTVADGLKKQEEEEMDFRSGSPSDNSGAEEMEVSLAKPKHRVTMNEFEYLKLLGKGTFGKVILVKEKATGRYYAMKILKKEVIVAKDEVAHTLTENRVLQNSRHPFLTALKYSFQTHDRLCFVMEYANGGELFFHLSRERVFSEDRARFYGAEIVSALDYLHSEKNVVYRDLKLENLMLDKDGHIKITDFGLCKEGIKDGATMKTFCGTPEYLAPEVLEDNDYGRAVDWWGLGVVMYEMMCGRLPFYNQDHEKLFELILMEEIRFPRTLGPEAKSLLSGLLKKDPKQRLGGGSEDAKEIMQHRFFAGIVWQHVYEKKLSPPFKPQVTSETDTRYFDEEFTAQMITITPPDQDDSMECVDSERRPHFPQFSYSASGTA

As for `CC1=CC[C@@H](C(C)(C)O)C[C@@H]1O`, the Activity result with HUVEC [1] is “Non-Toxic”.

With `CC(C)(O)c1ccc2c(c1)[C@H](O)C[C@H]1[C@](C)(C(=O)O)CCC[C@]21C`, the Activity result is reported as “Toxic” with HUVEC [1] and 20.53% in the data set on HUVEC [2]. The “fold change (FC)” value in the data set on HUVEC [3] is 0.89; with HUVEC [4] it was 0.69; in data set [5], 1.1; in data set [6] it was 0.68; with HUVEC [7] it was 0.98; in the data set with HUVEC [8], 0.82.

Turning to `CC(C)c1ccc2c(c1)CC[C@H]1[C@](C)(C(=O)O)CCC[C@]21C` [DEHYDROABIETIC ACID], the Activity entry in the data set with HUVEC [1] was “Toxic”; in the data set on HUVEC [9] it was 12.09%.

`C=C(C)[C@@H]1CC[C@](C)(O)[C@@H](O)C1`: in the data set with HUVEC [1], the Activity result is “Toxic”.

Regarding `C=C1CC[C@@H]2[C@](C)(CCC[C@@]2(C)C(=O)O[C@@H]2O[C@H](CO)[C@@H](O)[C@H](O)[C@H]2O)[C@H]1CCC1=CCOC1=O`, the Activity entry in the data set on HUVEC [1] is “Toxic”.

For `CC(C)(O)c1ccc2c(c1)C(=O)C[C@H]1[C@](C)(C(=O)O)CCC[C@]21C`, the Activity entry in the data set with HUVEC [1] is recorded as “Non-Toxic”.

Regarding `CC(C)(O)c1ccc2c(c1)[C@@H](O)C[C@H]1[C@](C)(C(=O)O)CCC[C@]21C`, the Activity entry with HUVEC [1] is listed as “Non-Toxic”; in the data set with HUVEC [10] it was 8.95%.

As to `O=C(O)c1ccc(O)cc1` [PARABEN], the Activity result with HUVEC [1] is on record as “Non-Toxic”.
